In one assay the test system is Foxo4. Nature of the assay: Western blot of pFoxo4T28 in primary mouse hepatocytes. The class given is cell-based. Conditions: 100 nM insulin, 6 hours. The procedure:
The overnight-acclimated hepatocytes were washed twice with PBS (to remove any residual FBS and other additives in the TRL hepatocyte maintenance medium, pretreated with control (water) or selenium Compounds CDE (150 or 300 ppb of each selenium compound) in DMEM/F12 media supplemented with 10% fetal bovine serum (FBS) for 24 hr. These cells were then washed twice with PBS and incubated with the same dose of selenium Compounds CDE (150 or 300 ppb) in the presence or absence of insulin (10 or 100 nM, Sigma), 0.1 mM 8-CPT (Sigma) or 0.5 μM Dex (Sigma) in serum-free and glucose-free DMEM media (Invitrogen) supplemented with 20 mM lactose (Sigma) and 2 mM pyruvate (Sigma) and 15 mM HEPES (Sigma) for another 6 hours. […]
After the above described treatments, primary mouse hepatocytes were rinsed with ice-cold PBS and lysed in the ice-cold RIPA buffer containing complete proteinase and phosphatase inhibitors (Thermo-Fisher Scientific, Waltham, Mass.) on ice for 30 min Cell lysates were collected using a cell scraper and transfer pipette and then centrifuged at 12000×g for 30 min at 4° C. to remove the DNA pellet and obtain the protein extract. Protein levels in the supernatant of these cell lysates were determined using the Pierce Micro-BCA protein assay kit (Thermo Scientific-Piece Biotechnology, Rockford, Ill.) according to the manufacturer's protocol. […]
A general note: In western blotting, separated proteins are transferred to a membrane and probed.

The subject of assay [1] is primary mouse hepatocytes. Nature of the assay: Glucose production in primary mouse hepatocytes (glucose in culture media). It counts as cell-based. Conditions: for 8-CPT/Dex-stimulated glucose production: serum-free; for 8-CPT/Dex-stimulated glucose production / decrease of glucose production: 6 hours. The procedure: The overnight-acclimated hepatocytes were washed twice with PBS (to remove any residual FBS and other additives in the TRL hepatocyte maintenance medium, pretreated with control (water) or selenium Compounds CDE (150 or 300 ppb of each selenium compound) in DMEM/F12 media supplemented with 10% fetal bovine serum (FBS) for 24 hr. These cells were then washed twice with PBS and incubated with the same dose of selenium Compounds CDE (150 or 300 ppb) in the presence or absence of insulin (10 or 100 nM, Sigma), 0.1 mM 8-CPT (Sigma) or 0.5 μM Dex (Sigma) in serum-free and glucose-free DMEM media (Invitrogen) supplemented with 20 mM lactose (Sigma) and 2 mM pyruvate (Sigma) and 15 mM HEPES (Sigma) for another 6 hours. After treatments, cell media were collected and subjected to glucose assay and toxicological studies of lactate dehydrogenase (LDH) and cells were collected for RNA and protein analysis.
For the studies of Compounds CDE on primary mouse hepatocytes under totally serum-free culture conditions, hepatocytes were acclimated in hepatocyte maintenance medium (TRL) for 8 hours, washed twice with PBS (to remove any residual FBS and other additives in the culture dish) and then starved in serum-free DMEM/F12 media overnight. Some of these serum-starved hepatocytes were treated with control (water), selenium compounds (150 or 300 ppb of each compound) in the presence or absence of insulin (10 or 100 nM), 0.1 mM 8-CPT (Sigma) or 0.5 μM Dex (Sigma) in serum-free and glucose/phenol red-free DMEM media supplemented with 20 mM lactose and 2 mM pyruvate and 15 mM HEPES for 6 hours. After 6 hours treatment, culture media were collected for glucose analysis and toxicological studies monitoring LDH activity and cultured cells were isolated for protein analysis. In addition, some serum-starved hepatocytes were treated with Compounds CDE (300 ppb of each compound) in plain DMEM/F12 media for 0, 5, 30, 60, 120 and 180 min and cells were collected for the time-course protein analysis of various signaling molecules.
Cell culture media from the above described treatments were collected and centrifuged at 300×g for 5 minutes to remove any potential dislodged hepatocytes and subjected to glucose analysis using a colormetric glucose assay kit (Abcam) according to the manufacturer protocol. The absorbance at OD570 nm in the samples and various concentrations of glucose standards were determined by the Bio-Tek microplate reader, and glucose concentration in the medium of each sample was obtained from the glucose standard curve, and then normalized by its protein level in attached cells which were determined using the Pierce Micro-BCA protein assay kit (Thermo Scientific-Piece Biotechnology, Rockford, Ill.) according to the manufacturer's protocol. Glucose levels in each treatment group were divided by the mean level in control group (without the treatments of Compounds CDE, insulin, 8-CPT and Dex) to obtain the relative glucose level. Data are presented as Mean±SEM of 3-4 samples.
Similar to the studies on AML-12 cells, primary mouse hepatocytes were pretreated with a control (water) or 150 ppb and 300 ppb doses of selenium Compounds CDE in serum-containing DMEM/F12 media for 24 hours. This treatment was followed by retreatments with these selenium compounds in the presence or absence of insulin (10 and 100 nM) or insulin alone for 6 hours. […]

As to “insulin: insulin (10 or 100 nM, Sigma) used as comparator and cotreatment”, the pFoxo4T28 levels result with Foxo4 is listed as “barely detectable”. Moreover, the 8-CPT/Dex-stimulated glucose production entry in assay [1] (10 nM insulin) was “significantly inhibited glucose production”; in assay [1] (100 nM insulin), “only a trend of decreased glucose production”. Besides, the 8-CPT/Dex-induced glucose production result in assay [1] (insulin 10 and 100 nM, vs 8-CPT/Dex group) is “significantly decreased 8-CPT/Dex-induced glucose production”. Besides, the “decrease of glucose production” value in assay [1] (insulin alone at 10 nM and 100 nM, vs water-treated control) is reported as 25-30%; in assay [1] (insulin alone, both doses (10, 100 nM), serum-starved, serum-free media) it was 40-47%.

Values taken from US9642874B2, “Compositions of selenoorganic compounds and methods of use thereof” (Alltech, Inc., priority 2014, dated 2017).
